Test results taken from patent US20230286958A1, “PLASMA KALLIKREIN INHIBITORS” (Merck Sharp & Dohme LLC, priority 2020, published 2023).

Assays:
human Factor XIa = human Factor XIa (Homo sapiens (Human), UniProt P03951); assay: Factor XIa Assay (fluorogenic substrate GPR-AFC); type: biochemical; settings: Factor XIa (FXIa)
Human plasma kallikrein = Human plasma kallikrein (Homo sapiens (Human), UniProt P03952); assay: Kallikrein Assay (fluorogenic substrate Acetyl-K-P-R-AFC); type: biochemical; settings: Plasma Kallikrein (PKal)
Method in brief: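 Ki is derived from IC50 with the Cheng-Prusoff equation, and IC50 from the inflection point of a four-parameter logistic curve. The rate of AFC release is read with 0.5 nM purified enzyme and […] substrate at room temperature or 37 °C.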

Sequence of human Factor XIa (P03951 388-625 limits assumed): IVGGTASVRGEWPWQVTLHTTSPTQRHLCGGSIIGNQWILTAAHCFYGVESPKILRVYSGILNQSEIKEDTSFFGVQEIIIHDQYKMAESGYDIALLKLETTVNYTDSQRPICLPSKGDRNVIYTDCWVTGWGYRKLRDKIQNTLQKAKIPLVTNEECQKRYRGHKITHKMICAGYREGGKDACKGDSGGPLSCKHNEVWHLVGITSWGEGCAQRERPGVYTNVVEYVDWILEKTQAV
Sequence of human Factor XIa (P03951 19-387 partner limits assumed): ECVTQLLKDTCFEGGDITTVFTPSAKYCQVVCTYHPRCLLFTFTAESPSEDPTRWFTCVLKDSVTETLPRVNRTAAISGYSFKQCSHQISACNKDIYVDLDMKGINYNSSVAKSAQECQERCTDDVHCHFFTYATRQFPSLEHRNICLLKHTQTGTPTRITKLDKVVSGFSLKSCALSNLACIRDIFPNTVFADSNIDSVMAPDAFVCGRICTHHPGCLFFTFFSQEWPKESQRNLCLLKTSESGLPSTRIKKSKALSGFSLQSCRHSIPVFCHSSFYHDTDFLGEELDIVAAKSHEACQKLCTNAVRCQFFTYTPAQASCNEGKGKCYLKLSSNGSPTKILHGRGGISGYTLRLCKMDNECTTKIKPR
Sequence of Human plasma kallikrein (P03952 391-638): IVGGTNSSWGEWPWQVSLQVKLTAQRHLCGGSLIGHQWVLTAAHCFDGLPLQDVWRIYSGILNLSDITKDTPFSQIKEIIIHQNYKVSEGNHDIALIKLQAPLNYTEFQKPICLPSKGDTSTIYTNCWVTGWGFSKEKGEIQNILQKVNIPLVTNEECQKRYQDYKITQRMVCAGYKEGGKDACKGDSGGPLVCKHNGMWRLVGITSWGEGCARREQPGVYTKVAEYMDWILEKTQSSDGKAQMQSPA
Sequence of Human plasma kallikrein (P03952 20-390 partner): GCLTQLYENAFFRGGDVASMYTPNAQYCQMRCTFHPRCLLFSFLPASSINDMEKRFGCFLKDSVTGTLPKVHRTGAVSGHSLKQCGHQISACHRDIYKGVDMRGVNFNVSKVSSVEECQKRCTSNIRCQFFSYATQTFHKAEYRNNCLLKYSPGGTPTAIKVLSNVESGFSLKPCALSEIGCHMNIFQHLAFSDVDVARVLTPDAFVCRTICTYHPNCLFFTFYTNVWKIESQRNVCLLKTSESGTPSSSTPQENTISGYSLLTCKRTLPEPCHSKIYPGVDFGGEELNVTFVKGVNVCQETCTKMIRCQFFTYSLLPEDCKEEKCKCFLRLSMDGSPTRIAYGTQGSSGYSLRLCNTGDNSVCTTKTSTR

SMILES	IC50 (human Factor XIa) [nM]	IC50 (Human plasma kallikrein) [nM]
Cc1ncc(-c2c(C(F)F)ccc(Cl)c2F)nc1C(=O)Nc1cnn(Cc2cnc(N3C[C@H]4C[C@H]4C3=O)c(C)n2)c1 [Example 46, 6-(3-Chloro-6-(difluoromethyl)-2-fluorophenyl)-3-methyl-N-(1-((6-methyl-5-((1R,5S)-2-oxo-3-azabicyclo[3.1.0]hexan-3-yl)pyrazin-2-yl)methyl)-1H-pyrazol-4-yl)pyrazine-2-carboxamide]	755	0.9
CC(c1cnc(N2CCN(C)C2=O)nc1)n1cc(NC(=O)c2cncc(-c3c(C(F)F)ccc(Cl)c3F)n2)cn1 (racemic) [Example 28, (S and R)-6-(3-Chloro-6-(difluoromethyl)-2-fluorophenyl)-N-(1-(1-(2-(3-methyl-2-oxoimidazolidin-1-yl)pyrimidin-5-yl)ethyl)-1H-pyrazol-4-yl)pyrazine-2-carboxamide]	> 10000	47.4
Cc1ncc(-c2c(C(F)F)ccc(Cl)c2F)nc1C(=O)Nc1cnn(C(C)c2ncc(N3C[C@H]4C[C@H]4C3=O)c(C)c2F)c1 (single isomer, unassigned) [Example 245, 6-(3-Chloro-6-(difluoromethyl)-2-fluorophenyl)-N-(1-((S or R)-1-(3-fluoro-4-methyl-5-((1R,5S)-2-oxo-3-azabicyclo[3.1.0]hexan-3-yl)pyridin-2-yl)ethyl)-1H-pyrazol-4-yl)-3-methylpyrazine-2-carboxamide]	> 10000	0.9
Cc1cc([C@H](C)n2cc(NC(=O)c3nc(-c4c(OC(F)F)ccc(Cl)c4F)cnc3CO)cn2)cnc1N1C[C@H]2C[C@H]2C1=O [Example 226]	41	0.4
COc1c(N2C[C@H]3C[C@H]3C2=O)ncc(C(C)n2cc(NC(=O)c3cncc(-c4c(C(F)F)ccc(Cl)c4F)n3)cn2)c1C (single isomer, unassigned) [Example 154, 6-(3-Chloro-6-(difluoromethyl)-2-fluorophenyl)-N-(1-((R or S)-1-(5-methoxy-4-methyl-6-((1R,5S)-2-oxo-3-azabicyclo[3.1.0]hexan-3-yl)pyridin-3-yl)ethyl)-1H-pyrazol-4-yl)pyrazine-2-carboxamide]	661	0.3
Cc1cc(N2C[C@H]3C[C@H]3C2=O)ncc1C(C)n1cc(NC(=O)c2nc(-c3c(C(F)F)ccc(Cl)c3F)cnc2CO)cn1 (single isomer, unassigned) [Example 203, 6-(3-Chloro-6-(difluoromethyl)-2-fluorophenyl)-3-(hydroxymethyl)-N-(1-((S or R)-1-(4-methyl-6-((1R,5S)-2-oxo-3-azabicyclo[3.1.0]hexan-3-yl)pyridin-3-yl)ethyl)-1H-pyrazol-4-yl)pyrazine-2-carboxamide]	282	0.3
Cc1nc(N2C[C@H]3C[C@H]3C2=O)cnc1C(C)n1cc(NC(=O)c2cncc(-c3c(C(F)F)ccc(Cl)c3F)n2)cn1 (single isomer, unassigned) [Example 53, 6-(3-Chloro-6-(difluoromethyl)-2-fluorophenyl)-N-(1-((S or R)-1-(3-methyl-5-((1R,5S)-2-oxo-3-azabicyclo[3.1.0]hexan-3-yl)pyrazin-2-yl)ethyl)-1H-pyrazol-4-yl)pyrazine-2-carboxamide]	6630	38.3
Cc1cc(C(C)n2cc(NC(=O)c3nc(-c4c(C(F)F)ccc(Cl)c4F)cnc3C)cn2)nnc1N1C[C@H]2C[C@H]2C1=O (single isomer, unassigned) [Example 102, 6-(3-Chloro-6-(difluoromethyl)-2-fluorophenyl)-3-methyl-N-(1-((S or R)-1-(5-methyl-6-((1R,5S)-2-oxo-3-azabicyclo[3.1.0]hexan-3-yl)pyridazin-3-yl)ethyl)-1H-pyrazol-4-yl)pyrazine-2-carboxamide]	739	0.7
Cc1nc(N2C[C@H]3C[C@H]3C2=O)ncc1Cn1cc(NC(=O)c2cncc(-c3c(C(F)F)ccc(Cl)c3F)n2)cn1 [Example 24, 6-(3-Chloro-6-(difluoromethyl)-2-fluorophenyl)-N-(1-((4-methyl-2-((1R,5S)-2-oxo-3-azabicyclo[3.1.0]hexan-3-yl)pyrimidin-5-yl)methyl)-1H-pyrazol-4-yl)pyrazine-2-carboxamide]	3110	10.5
Cc1ncc(-c2c(C#N)ccc(Cl)c2F)nc1C(=O)Nc1cnn(C(C)c2cnc(N3C[C@H]4C[C@H]4C3=O)c(C)n2)c1 (single isomer, unassigned) [Example 235, 6-(3-Chloro-6-cyano-2-fluorophenyl)-3-methyl-N-(1-((S or R)-1-(6-methyl-5-((1R,5S)-2-oxo-3-azabicyclo[3.1.0]hexan-3-yl)pyrazin-2-yl)ethyl)-1H-pyrazol-4-yl)pyrazine-2-carboxamide]	2060	0.4
Cc1ncc(-c2c(C(F)F)ccc(Cl)c2F)nc1C(=O)Nc1cnn([C@@H](C)c2cnc(N3C[C@H]4C[C@H]4C3=O)c(O)c2)c1 [Example 217, 6-(3-Chloro-6-(difluoromethyl)-2-fluorophenyl)-N-(1-((S)-1-(5-hydroxy-6-((1R,5S)-2-oxo-3-azabicyclo[3.1.0]hexan-3-yl)pyridin-3-yl)ethyl)-1H-pyrazol-4-yl)-3-methylpyrazine-2-carboxamide]	4150	14.9
Cc1nc(Cn2cc(NC(=O)c3cncc(-c4c(C(F)F)ccc(Cl)c4F)n3)cn2)cnc1N1C[C@H]2C[C@H]2C1=O [Example 47, 6-(3-Chloro-6-(difluoromethyl)-2-fluorophenyl)-N-(1-((6-methyl-5-((1R,5S)-2-oxo-3-azabicyclo[3.1.0]hexan-3-yl)pyrazin-2-yl)methyl)-1H-pyrazol-4-yl)pyrazine-2-carboxamide]	1150	2.5

Results, then the compound that gave them:

IC50 (human Factor XIa) [nM]	IC50 (Human plasma kallikrein) [nM]	SMILES
558	0.7	Cc1cc(C(C)n2cc(NC(=O)c3cncc(-c4c(OC(F)F)ccc(Cl)c4F)n3)cn2)nnc1N1C[C@H]2C[C@H]2C1=O (single isomer, unassigned) [Example 114, 6-(3-Chloro-6-(difluoromethoxy)-2-fluorophenyl)-N-(1-((S or R)-1-(5-methyl-6-((1R,5S)-2-oxo-3-azabicyclo[3.1.0]hexan-3-yl)pyridazin-3-yl)ethyl)-1H-pyrazol-4-yl)pyrazine-2-carboxamide]
4890	5.4	Cc1ncc(-c2c(C(F)F)ccc(Cl)c2F)nc1C(=O)Nc1cnn(C(CO)c2cnc(N3C[C@H]4C[C@H]4C3=O)nc2)c1 (single isomer, unassigned) [Example 164, 6-(3-Chloro-6-(difluoromethyl)-2-fluorophenyl)-N-(1-((R or S)-2-hydroxy-1-(2-((1R,5S)-2-oxo-3-azabicyclo[3.1.0]hexan-3-yl)pyrimidin-5-yl)ethyl)-1H-pyrazol-4-yl)-3-methylpyrazine-2-carboxamide]
1320	3.2	CC(c1cnc(N2C[C@H]3C[C@H]3C2=O)c2c1OCO2)n1cc(NC(=O)c2cncc(-c3c(C(F)F)ccc(Cl)c3F)n2)cn1 (single isomer, unassigned) [Example 250, 6-(3-Chloro-6-(difluoromethyl)-2-fluorophenyl)-N-(1-((R or S)-1-(4-((1R,5S)-2-oxo-3-azabicyclo[3.1.0]hexan-3-yl)-[1,3]dioxolo[4,5-c]pyridin-7-yl)ethyl)-1H-pyrazol-4-yl)pyrazine-2-carboxamide]
1230	1.8	CCc1ncc(-c2c(C(F)F)ccc(Cl)c2F)nc1C(=O)Nc1cnn(C(C)c2cc(C)c(N3C[C@H]4C[C@H]4C3=O)nn2)c1 (single isomer, unassigned) [Example 239, 6-(3-Chloro-6-(difluoromethyl)-2-fluorophenyl)-3-ethyl-N-(1-((S or R)-1-(5-methyl-6-((1R,5S)-2-oxo-3-azabicyclo[3.1.0]hexan-3-yl)pyridazin-3-yl)ethyl)-1H-pyrazol-4-yl)pyrazine-2-carboxamide]
120	0.3	CC(c1cnc(N2C[C@H]3C[C@H]3C2=O)c(F)c1)n1cc(NC(=O)c2nc(-c3c(C(F)F)ccc(Cl)c3F)cnc2CO)cn1 (single isomer, unassigned) [Example 206, 6-(3-Chloro-6-(difluoromethyl)-2-fluorophenyl)-N-(1-((R or S)-1-(5-fluoro-6-((1R,5S)-2-oxo-3-azabicyclo[3.1.0]hexan-3-yl)pyridin-3-yl)ethyl)-1H-pyrazol-4-yl)-3-(hydroxymethyl)pyrazine-2-carboxamide]
1380	1.4	Cc1ncc(-c2c(C(F)F)ccc(Cl)c2F)nc1C(=O)Nc1cnn(Cc2cnc(N3C[C@H]4C[C@H]4C3=O)c(C)n2)n1 [Example 186, 6-(3-Chloro-6-(difluoromethyl)-2-fluorophenyl)-3-methyl-N-(2-((6-methyl-5-((1R,5S)-2-oxo-3-azabicyclo[3.1.0]hexan-3-yl)pyrazin-2-yl)methyl)-2H-1,2,3-triazol-4-yl)pyrazine-2-carboxamide]
> 10000	0.9	Cc1ncc(-c2c(C(F)F)ccc(Cl)c2F)nc1C(=O)Nc1cnn(C(C)c2ncc(N3C[C@H]4C[C@H]4C3=O)cn2)c1 (single isomer, unassigned) [Example 6, 6-(3-Chloro-6-(difluoromethyl)-2-fluorophenyl)-3-methyl-N-(1-((R or S)-1-(5-((1R,5S)-2-oxo-3-azabicyclo[3.1.0]hexan-3-yl)pyrimidin-2-yl)ethyl)-1H-pyrazol-4-yl)pyrazine-2-carboxamide]
> 10000	713	C[C@@H](c1cnc(N2C[C@H]3C[C@H]3C2=O)nc1N)n1cc(NC(=O)c2cncc(-c3c(C(F)F)ccc(Cl)c3F)n2)cn1 [Example 171, N-(1-((S)-1-(4-Amino-2-((1R,5S)-2-oxo-3-azabicyclo[3.1.0]hexan-3-yl)pyrimidin-5-yl)ethyl)-1H-pyrazol-4-yl)-6-(3-chloro-6-(difluoromethyl)-2-fluorophenyl)pyrazine-2-carboxamide]
